According to patent US11390543B2, “Sterilization method” (NEWSOUTH INNOVATIONS PTY LIMITED, priority 2017, dated 2022):
Where “and” joins values, the source holds several entries; their conditions need not be identical. Equal entries are not always repeated. Where two headings read alike, the source gives them in different places.

Key:
[1] = cited from earlier work
[2] = system: Escherichia coli C-3000 (ATCC15597); assay: E. coli inactivation by bubbling gas through 0.17 M NaCl solution in bubble column evaporator, plaque assay; format: cell-based
[3] = pH of the solution measured during bubbling experiments; format: physicochemical; settings: for pH: […] NaCl
Protocol: The solubility at 52° C. (for viruses) and 43° C. (for E. coli) of the different gases used were obtained from literature values (http://www.engineeringtoolbox.com). The pH values were measured during the experiments and the Zeta potential values were measured during the experiments at a virus concentration of 10^8 per ml and E. coli concentration of 10^7 per ml.

[4] = system: MS2 bacteriophage (ATCC 15597-B1); assay: MS2 virus inactivation by bubbling gas through 0.17 M NaCl solution in bubble column evaporator, double layer plaque assay; format: cell-based; settings: for MS2 virus inactivation, log reduction: inlet gas temperature 200° C., after 37.5 min; for MS2 virus log reduction: as time approached 10 mins
Protocol: MS2 bacteriophage (ATCC 15597-B1) was chosen as the model virus to evaluate the efficiency of methods of inactivation of viruses. MS2 is usually quantified by counting infectious units via a standard plaque assay that is commonly used for detection of MS2 in treated drinking water and waste-water.
Analysis of virus inactivation was carried out using the optimized Double Layer Plaque Assay technique described in Cormier et al, that detects only infectious viruses by using E. coli as their host.
A specific optimized Double Layer Plaque Assay technique as described in Cormier et al was used to assess the concentration of active MS2 viruses. This plaque assay method is commonly used for detection of MS2 in treated drinking water, wastewater and marine water. The water quality is assessed based on the ability of bacteriophages to kill the host bacteria and allow phages to propagate in a confluent lawn of bacterial host cells immobilized in a layer of agar.
A freeze-dried vial of MS2 bacteriophage was acquired from the American Type Culture Collection. Bacteriophage MS2 (ATCC 15597-B1) was replicated using Escherichia coli C-3000 (ATCC 15597) according to the International Standard ISO 10705-1 [31] and the Ultraviolet disinfection guidance manual of the United States Environmental Protection Agency. The zeta-potential of the MS2 viruses in 0.17 M NaCl solution with different gas bubbles was measured using a Malvern Zetasizer nano series instrument.
The gases were pumped through the electrical heater that maintained the gas temperature just above the sinter surface at the base of the bubble column evaporator at a particular temperature, depending on the experiment. The base of the bubble column evaporator was fitted with a 40-100 μm pore size glass sinter (type 2) of 135 mm diameter.
Once the aqueous solution was poured into the column, the temperature of the solution was measured with a thermocouple in the centre of the column solution. The gas was then passed through the sinter into the 300 ml solution to inactivate MS2 viruses or E. coli (in separate experiments). […]
Further experiments were also performed using MS2 virus in a 0.17 M NaCl solution (initial temperature of about 22° C.) in the BCE, with CO2 gas at different inlet temperatures (205° C., 150° C., 100° C., 11° C. and 20° C.) and with CO2 gas having an inlet temperature of 22° C. at different flow rates (27 l/min and 20 l/min).
Once the solutions with known concentration of coliphage and E. coli were prepared, experiments were conducted to study the inactivation of the coliphage with different gases and inlet gas temperatures. 1.3 ml samples were collected from 10 to 15 mm above the central area of the sinter every 6 minutes during 36 minutes for the virus experiments and every 2 min for the E. coli experiments. 0.07 ml of each sample was spotted in triplicate following the double layer plaque assay technique.
Plaque counts were performed for all 18-21 plates of each of the experiments. The mean and the standard deviation of each triplicated sample using a virus or bacteria survival factor: Log10(PFU/PFU0), where PFU0 is the initial number of PFU per sample and PFU is the PFU per sample after an exposure time in minutes. When plotted, a second order polynomial distribution was applied to fit the survival curves.

E. coli [5] = settings: pH 4.2, stirred beaker, […] NaCl, 22° C., no bubbling
Protocol: (§1) To evaluate the effect of solution pH on the inactivation of MS2 bacteriophage and E. coli experiments, comparison tests using 0.17 M NaCl solution at pH 4.1, were carried out in a separate beaker, in a water bath. During these experiments, samples were regularly taken out from the beaker and analysed as before.
(§2) To determine if the reduction in pH, due to dissolved CO2 (equations 1, 2, 3 and 4), was related to its disinfectant effects, two experiments with carbonic acid (H2CO3) at pH 4.2 were conducted in a continuous stirred beaker, one for viruses and another one for bacteria.
(§3) Carbonic acid (H2CO3) was produced by bubbling 27 l/min. of pure CO2 through the 0.17 M NaCl solution during 10 minutes at 22° C. […] Some authors describe a small, low pH inactivation effect on microbial cells, since membranes stop protons from penetration but low pH makes membrane more permeable to other substances like CO2 due to the chemical modification on the phospholipid bilayer of membranes.

MS2 bacteriophage = settings: pH 4.2, stirred beaker, […] NaCl, 22° C., no bubbling
Protocol: as §1, §2, §3

E. coli [6] = settings: cited from earlier work
MS2 virus = settings: 1 to 2 M of NaCl; cited from earlier work
[7] = in water at 43° C., 1 atm (E. coli section)
[8] = in water at 52° C., 1 atm (virus section)
[9] = inlet gas temperature 150° C., after 10 min
[10] = E. coli experiments, gases at 150° C. (combustion gas 58° C.)
[11] = MS2 experiments, gases at 200° C. (combustion gas 60° C.)

[Ar] [Argon]
Solubility [1, 7]: 0.040 Grams dissolved in 1 Kg of wat | Solubility [1, 8]: 0.035 Grams dissolved in 1 Kg of wat | E. coli inactivation, log reduction [2, 9]: 0.40 log | pH [3, 10]: 6.0 | pH [3, 11]: 6.0 | MS2 virus inactivation, log reduction [4]: 1.5 log

O=C=O [Carbon dioxide]
Solubility [1, 7]: 0.950 Grams dissolved in 1 Kg of wat | Solubility [1, 8]: 0.800 Grams dissolved in 1 Kg of wat | E. coli inactivation, log reduction ([2]; inlet gas temperature 150° C., after 10 min, listed as CO2): 2.84 log and 2.6 log | pH [3, 10]: 4.0 | pH [3, 11]: 4.0 | pH of the water when using CO2 gas in the bubble column ([3]; dropped from 5.9 in less than 45 seconds): 4.2 | MS2 virus log-reduction ([4]; 150° C. inlet CO2 temperature, after 7 min): 2.3 log | MS2 virus log-reduction ([4]; CO2 11° C. inlet temperature, 9° C. column temperature, after 6.5 minutes): 0.1 log | MS2 virus inactivation rate ([4]; CO2 (100%) at 200° C., in 3.5 minutes): 2.7 log | MS2 virus log-reduction ([4]; CO2 at 22° C., 20 l/min, after 2 minutes): 0.35 log | MS2 virus log reduction ([4]; CO2 at 22° C., 20 l/min): about 1 log | MS2 virus log-reduction ([4]; CO2 at 22° C., 27 l/min, after 2 minutes): 0.62 log | MS2 virus log reduction ([4]; CO2 at 22° C., 27 l/min): about 1 log | MS2 virus log-reduction ([4]; CO2 at 200° C., after 3 min): 3 log | MS2 virus log inactivation ([4]; CO2 at 200° C., within 5 min): 2.0 log | MS2 virus reduction ([4]; CO2 bubbles at room temperature, 10 min): 1 log

O=C(O)O [Carbonic acid (H2CO3), Carbonic acid]
E. coli log removal (E. coli [5]): 0.08 log | log virus reduction (MS2 bacteriophage): 0.002 log

[Cl-].[Na+] [NaCl]
inactivation of E. coli by NaCl solutions (E. coli [6]): do not inactivate E. coli | stability of MS2 virus in the presence of NaCl (MS2 virus): stable

N#N [Nitrogen]
E. coli inactivation, log reduction [2, 9]: 1.74 log and 1.5 log | MS2 virus inactivation, log reduction [4]: 1.5 log

O=O [Oxygen]
Solubility [1, 7]: 0.030 Grams dissolved in 1 Kg of wat | Solubility [1, 8]: 0.027 Grams dissolved in 1 Kg of wat | E. coli reduction ([2]; oxygen at 150° C. inlet gas temperature as printed): 0.65 log | E. coli inactivation, log reduction ([2]; oxygen bubbles at 150° C., after 3.5 minutes): 2.90 log | pH [3, 10]: 6.1 | pH [3, 11]: 6 | MS2 virus inactivation, log reduction [4]: 1.5 log
